The values that follow come from publication PMC6376162, “HEXIM1 Peptide Exhibits Antimicrobial Activity Against Antibiotic Resistant Bacteria Through Guidance of Cell Penetrating Peptide” (Frontiers in Microbiology, 2019).

Data set [1] has as its system bacterial translation (E. coli lysate). Description: In vitro protein synthesis assay (RTS 100 E. coli HY Kit, GFP, Western blot). As to conditions: 10 μM streptomycin, RTS with 5 μg GFP mRNA, 30°C, 6 h; positive control. Type of data set: biochemical, Escherichia coli. Here is the method: The method to study the effect of peptide treatment on in vitro expression of protein was adapted from previous study ([Taniguchi et al., 2016]). RTS^TM 100 E. coli HY Kit (biotechrabbit) was used as a cell-free rapid translation system (RTS) to express green fluorescent protein (GFP) with or without peptide treatment. Streptomycin (Sigma-Aldrich), an antibiotic functioning as an inhibitor of bacterial translation, was used as a positive control. Reaction mixture was prepared as described in the product manual. For the negative control, the remaining 10 μl was topped up with nuclease-free water while for the other reactions, the 10 μl consists of 5 μg GFP mRNA and either nuclease-free water or the indicated treatment (100 μM Pen, Pen-BR, Pen-RRR, CapM2 or 10 μM Streptomycin). Reaction was incubated at 30°C for 6 h before being analyzed with Western blot for the protein level of GFP. To obtain GFP mRNA, control GFP expression vector was first linearized using ApaLI restriction enzyme (New England Biolabs) and then separated via agarose gel electrophoresis. Fragment containing the linearized GFP expression vector was retrieved using FavorPrep GEL Purification Kit (FAVORGEN Biotech Corp.) and subsequently used as the template for MEGAscript^TM T7 Transcription Kit (Thermo Fisher Scientific) to generate GFP mRNA. […]

Another data set deals with P. aeruginosa 544. The format is cell-based, Pseudomonas aeruginosa. To be noted: 544, 20 h. Here is the method:
(§1) Bacterial strains were either purchased from American Type Culture Collection (ATCC, United States) or provided by National University Hospital, Singapore. Prior to assays, all bacteria, except for Enterococcus faecalis, were grown overnight to stationary phase at 37°C in Luria Bertani (LB) broth (Novagen, Germany). The overnight cultures were 10-fold diluted in fresh cation-adjusted Mueller Hinton II broth (MHBII) (Becton Dickinson, United States) and grown for additional few hours at 37°C to obtain mid-log phase culture. E. faecalis strains were grown in M17 broth (Becton Dickenson, United States) for both overnight and mid-log phase culturing. Human keratinocyte cell line, HaCaT, was purchased from Creative Bioarray (United States) and cultured in Dulbecco’s Modified Eagle’s medium with 4.5 g/L glucose, 2 mM L-glutamine, and 10% fetal bovine serum.
(§2) Minimum inhibition concentrations (MICs) were determined by using broth microdilution method in a 96-well microtiter plate according to guidelines of the Clinical and Laboratory Standards Institute ([CLSI, 2012]). Briefly, mid-log phase cultures were diluted with MHBII and added to wells containing serially diluted peptides to give final cell concentration of 5 × 10^5 cells ml^−1. Peptides were prepared in twofold serial dilution series to give a final concentration range from 2 to 128 μM. Cecropin P1 (CECP1) and Cap11-1-18m^2 (CapM2) treated cells were used as positive controls, while untreated cells were used as a negative control.
(§3) To further assess the potency of peptides, wells with no visible growth from MIC tests were subsequently plated on LB agar plates and incubated overnight at 37°C. […] Both MIC and MBC assays were conducted on three to five separate occasions and if results were within one doubling dilutions of each other, the highest reading was recorded for analysis.

The subject of another data set is S. aureus 43300. Type of data set: cell-based, Staphylococcus aureus. To be noted: 43300, 20 h. Here is the method: as §1, §2, §3
Another data set deals with E. faecalis VRE. The format is cell-based, Enterococcus faecalis. As to conditions: 20 h. As to the method:
as §1, §2, §3

The subject of a further data set is mammalian cells. Further details: method as in Neo et al., 2016. To be noted: cited from earlier work.
Another data set has as its system Escherichia coli 25922. The format is cell-based. As to conditions: 25922, 20 h. As to the method: as §1, §2, §3
The subject of data set [2] is Pseudomonas aeruginosa 27853. The format is cell-based. As to conditions: 27853, 20 h. Here is the method: as §1, §2, §3
The subject of a further data set is Escherichia coli BAA2523. Type of data set: cell-based. To be noted: BAA2523, 20 h. Here is the method: as §1, §2, §3
Data set [3] relates to Enterococcus faecalis SEN. The format is cell-based. As to conditions: 20 h. Here is the method:
as §1, §2, §3

The subject of data set [4] is Staphylococcus aureus 29213. Type of data set: cell-based. To be noted: 29213, 20 h. As to the method:
as §1, §2, §3

Values after ≈ are worked out from the molar mass of the structure shown. Residues, ends and D or L forms follow the SMILES beside them.

Consider `[H]/N=C(/N)N[C@H]1[C@H](O)[C@@H](O)[C@H](O[C@@H]2O[C@@H](C)[C@](O)(C=O)[C@H]2O[C@@H]2O[C@@H](CO)[C@H](O)[C@@H](O)[C@@H]2NC)[C@@H](N/C(N)=N\[H])[C@@H]1O` [streptomycin, Streptomycin], for which the “synthesis of GFP protein (Western blot)” value in [1] was “significant inhibition”.

Take `CC(C)C[C@H](NC(=O)[C@@H](N)CCC(N)=O)C(=O)NCC(=O)N[C@@H](CCCCN)C(=O)N[C@@H](CCCCN)C(=O)N[C@@H](CCCCN)C(=O)N[C@@H](Cc1c[nH]cn1)C(=O)N[C@@H](CCCNC(=N)N)C(=O)N[C@@H](CCCNC(=N)N)C(=O)N[C@@H](CCCNC(=N)N)C(=O)N1CCC[C@H]1C(=O)N[C@@H](CO)C(=O)N[C@@H](CCCCN)C(=O)N[C@@H](CCCCN)C(=O)N[C@@H](CCCCN)C(=O)N[C@@H](CCCNC(=N)N)C(=O)N[C@@H](Cc1c[nH]cn1)C(=O)N[C@@H](Cc1c[nH]c2ccccc12)C(=O)O` [BR] (H-QLGKKKHRRRPSKKKRHW-OH): the MBC (against P. aeruginosa 544; in the data set on S. aureus 43300; against E. faecalis VRE; against Escherichia coli 25922; in data set [2]; in the data set with Escherichia coli BAA2523) was over 128 µM throughout. Moreover, the MBC in data set [3] and in [4] was over 128 µM throughout. Also, the minimal inhibitory concentration (MIC) (with P. aeruginosa 544; in the data set with E. faecalis VRE; in the data set on Escherichia coli 25922; in data set [2]; in the data set with Escherichia coli BAA2523; in [3]) was over 128 µM each time. The MIC in data set [4] was 128 µM (≈ 301 µg/mL). Besides, in the data set with mammalian cells, the “cytotoxic effects on mammalian cells” value was “failed to cause any detectable cytotoxic effects”.
